# Earlier results as cited in patent US20160235660A1, “COSMETIC COMPOSITION AND USE THEREOF” (EMS S.A., priority 2015, published 2016).
# System: facial melasma
# Conditions: hydroquinone 4% vs 0.75% kojic acid cream
smiles,measurement,value
"Oc1ccc(O)cc1 [hydroquinone, 1,4-dihydroxybenzene]",action in the treatment of melasma compared with kojic acid,superiority
